The values that follow come from patent US11267806B2, “Indazole compound for use in inhibiting kinase activity, composition and application thereof” (Shenzhen TargetRx, Inc., priority 2017, dated 2022).

Where two headings read alike, the source gives them in different places. Where only a bound is given, the exact number is not on record here.

Series [1] can be described thus: Liver microsomal metabolism assay, human. Format: in vitro ADME. The following applies: pH 7.4, human liver microsomes 0.5 mg/mL, compound 1 μM, 37° C.; for microsomal CLint at 1 μM: read-out: Human liver microsome assay CLint; for half-life at 1 μM: read-out: Human liver microsome assay t1/2. As for the experimental part:
(§1) (3) Liver Microsomal Metabolism Assay
(§2) […]; Coenzyme (NADPH/NADH): 1 mM, Sigma Life Science; Magnesium chloride: 5 mM, 100 mM phosphate buffer (pH 7.4).
(§3) Preparation of stock solutions: Powder of the compounds were accurately weighed and dissolved in DMSO to 5 mM.
(§4) Preparation of phosphate buffer (100 mM, pH7.4): A pre-prepared 0.5M potassium dihydrogen phosphate (150 mL) was mixed with 0.5M dibasic potassium phosphate (700 mL). The pH of the mixture was adjusted to 7.4 with 0.5M dibasic potassium phosphate solution. The mixture was diluted 5-fold with ultrapure water before use, and magnesium chloride was added to obtain a phosphate buffer (100 mM) containing 100 mM potassium phosphate, 3.3 mM magnesium chloride, pH 7.4.
(§5) A NADPH regeneration system solution (containing 6.5 mM NADP, 16.5 mM G-6-P, 3 U/mL G-6-P D, 3.3 mM magnesium chloride) was prepared and placed on wet ice prior to use.
(§6) Incubation of the samples: The stock solutions of the respective compounds were respectively diluted to 0.25 mM with an aqueous solution containing 70% acetonitrile, and used as a working solution, ready for use. 398 μL of the dilution of human liver microsomes or rat liver microsomes were added to 96-well incubation plates (N=2), respectively, and 2 μL of 0.25 mM working solution was added and mixed.
(§7) Metabolic stability assay: 300 μL of pre-chilled stop solution was added to each well of 96-well deep well plates and placed on ice as stop plates. The 96-well incubation plates and NADPH regeneration system were placed in a 37° C. water bath box, shaken at 100 rpm and pre-incubated for 5 min. 80 μL of incubation solution was taken out from each well of the incubation plates and added to the stop plates, mixed, and replenished with 20 μL of NADPH regeneration system solution as a 0-min sample. 80 μL of NADPH regeneration system solution was added to each well of the incubation plates to start the reaction and start counting. […] Separately, 100 μL of the reaction solutions was taken at 10, 30, and 90 min reaction, respectively, added to stop plates, and vortexed for 3 minutes to terminate the reaction. The stop plates were centrifuged at 5000×g at 4° C. for 10 min. 100 μL of the supernatant was added to a 96-well plate to which 100 μL of distilled water was previously added, mixed, and analyzed by LC-MS/MS.
(§8) Data analysis: The peak areas of the corresponding compounds and internal standard were detected by LC-MS/MS system, and the ratio of the peak area of the compounds to the internal standard was calculated.
(§9) The metabolic stability of the compounds in human and rat liver microsomes was evaluated by simultaneously testing and comparing the compounds disclosed herein and the non-deuterated compound. […]

Series [2] deals with Ba/F3 EML-ALK^L1196M cells. Nature of the series: Cytotoxicity assay (cell viability, CellTiter-Glo), Ba/F3 EML-ALK L1196M. Format: cell-based. As to conditions: Mus musculus, BaF3, 72 h, read-out: Ba/F3 EML-ALK^L1196M IC50. In general terms: Cellular ATP, detected with luciferase, serves as a proxy for viable cell number.
A further series has as its system Ba/F3 EML-ALK cells. Nature of the series: Cytotoxicity assay (cell viability, CellTiter-Glo), Ba/F3 EML-ALK. The series is classed as cell-based. As to conditions: Mus musculus, BaF3, 72 h, read-out: Ba/F3 EML-ALK IC50.
A short description of series [3]: Pharmacokinetic assay in rats. Format: in vivo, SD rat. As to conditions: male SD rats, i.g., 3 mg/kg; for AUC(0-t) / Cmax / MRT / Tmax: rat, plasma, po. Here is the method: (4) Pharmacokinetic Assay in Rats Assay objective: after administration of test compounds to rats, the pharmacokinetic behavior of the compounds disclosed herein was investigated. Assay Animals: Species and strains: SD rat grade: SPF grade Gender and quantity: male, 6 Weight range: 180 to 220 g (the actual weight range was from 187 to 197 g) Assay Procedure: Before blood samples were collected, 20 μL of 2 M sodium fluoride solution (esterase inhibitor) was previously added to an EDTA-K2 anticoagulant tube, dried in an 80° C. oven, and placed in a 4° C. refrigerator. Rats (male, weighing 187 to 197 g) were randomly divided into 2 groups, and were fasted overnight in the afternoon before the experiment but were allowed to drink water freely. Food was given 4 hours after the administration. […] About 100-200 μL of blood was taken from the orbital vein of rats at 15 min, 30 min, 1, 2, 3, 5, 8 and 10 h after administration, placed in a 0.5 mL Eppendorf tube with EDTA-K2 anticoagulant and mixed immediately. After anticoagulation, the tube was gently inverted 5-6 times as quickly as possible. After the blood was taken, it was placed in an ice box, and then within 30 min, the blood sample was centrifuged for 10 min at 4000 rpm and 4° C. to separate the plasma. Immediately after collection of all plasma, it was stored at −20° C. The concentration of the drug in plasma at each time point was determined after sample collection at all time points. Based on the data of the average concentration of the drug in plasma versus time after administration obtained as described above, pharmacokinetics-related parameters of male SD rats after the i.g. administration of test compounds (3 mg/kg) were calculated using the Winnonin software according to non-compartment statistical moment theory.

Series [4] in a line: Liver microsomal metabolism assay, rat. The series is classed as in vitro ADME. The following applies: SD, pH 7.4, rat liver microsomes 0.5 mg/mL, compound 1 μM, 37° C.; for microsomal CLint at 1 μM: read-out: Rat liver microsome assay CLint; for half-life at 1 μM: read-out: Rat liver microsome assay t1/2. As for the experimental part: as §1, §2, §3, §4, §5, §6, §7, §8, §9
(In general: Liver microsomes are a subcellular fraction often used to study metabolism.)

Series [5] concerns HCC-78 (SLC34A2-ROS1) cells. Briefly: cells. As to conditions: Homo sapiens, HCC78, 72 h, read-out: HCC-78 IC50. Here is the method:
(§10) Assay methods: 1. Preparation of cell plates: Ba/F3, and Ba/F3 Bcr-Abl T315I cells were separately seeded in 96-well plates, and 8 ng/ml IL-3 was added to Ba/F3 cells. The cell plates were placed in a carbon dioxide incubator for culture overnight. 2. […] 3. Treatment of cells with compounds: The compounds were transferred to cell plates at a starting concentration of 10 μM. The cell plates were incubated in a carbon dioxide incubator for 3 days. 4. Detection: CellTiter-Glo reagent was added to the cell plates and incubated for 30 minutes at room temperature to stabilize the luminescence signal. Readings were performed using a PerkinElmer Envision multi-label analyzer.

Another series deals with KM12 (TPM3-TRKA) cells. Nature of the series: cells. The following applies: Homo sapiens, KM12, 72 h, read-out: KM12 IC50. Here is the method:
as §10

Setting [6] is: cell viability, 3 days incubation.

By AUC(0-t) is commonly meant exposure summed from dosing to a finite time, without extrapolation to infinity. High values mean high exposure, low ones low exposure. The term Cmax denotes the peak of the concentration-time curve. What is called MRT is the average time that molecules of a dose stay in the body. By Tmax is commonly meant the time at which the peak concentration occurs.

On to `[2H]C([2H])([2H])N1C([2H])([2H])C([2H])([2H])N(c2ccc(C(=O)Nc3n[nH]c4ccc(Cc5cc(F)cc(F)c5)cc34)c(NC3CCOCC3)c2)C([2H])([2H])C1([2H])[2H]` [Compound T-3, N-(5-(3,5-difluorobenzyl)-1H-indazol-3-yl)-4-(4-(methyl-d3)piperazin-1-yl-2,2,3,3,5,5,6,6-d8)-2-((tetrahydro-2H-pyran-4-yl)amino)benzamide], for which, in series [1], the microsomal CLint at 1 μM is 39.2 µL/min/mg and the half-life at 1 μM was determined as 0.59 h. Besides, the IC50 in series [2] (setting [6]) is more than 200 nM. For the same molecule, in the series on Ba/F3 EML-ALK cells (setting [6]), the IC50 fell in the range of 50 to 150 nM. For the same molecule, in series [3], the Cl_pred is 411 mL/min/kg, the F turned out to be 13.03%, the AUC(0-t) is 1550 ng·h/mL and the Cmax amounted to 237 ng/mL. Also, in series [3], the MRT is 4.91 h and the Tmax was 3.33 h. Moreover, in series [4], the microsomal CLint at 1 μM stood at 27.3 µL/min/mg and the half-life at 1 μM came out at 0.845 h.

`[2H]C([2H])(c1cc(F)cc(F)c1)c1ccc2[nH]nc(NC(=O)c3ccc(N4CCN(C)CC4)cc3NC3CCOCC3)c2c1` [Compound T-7, N-(5-((3,5-difluorophenyl)methyl-d2)-1H-indazol-3-yl)-4-(4-methylpiperazin-1-yl)-2-((tetrahydro-2H-pyran-4-yl)amino)benzamide]: in series [1], the microsomal CLint at 1 μM was found to be 51.1 µL/min/mg and the half-life at 1 μM was found to be 0.452 h. Further, the IC50 in series [2] (setting [6]) is more than 200 nM. Moreover, the IC50 in the series on Ba/F3 EML-ALK cells (setting [6]) was 50 to 150 nM. Also, in series [3], the Cl_pred came to 97.5 mL/min/kg, the F is 13.67%, the AUC(0-t) was 1770 ng·h/mL and the Cmax is 278 ng/mL. In series [3], the mean residence time (MRT) was 5.28 h and the Tmax was determined as 4 h. In addition, in series [4], the microsomal CLint at 1 μM was 33.7 µL/min/mg and the half-life at 1 μM was 0.685 h.

Consider `[2H]C1([2H])N(C)C([2H])([2H])C([2H])([2H])N(c2ccc(C(=O)Nc3n[nH]c4ccc(Cc5cc(F)cc(F)c5)cc34)c(NC3CCOCC3)c2)C1([2H])[2H]` [Compound T-2, N-(5-(3,5-difluorobenzyl)-1H-indazol-3-yl)-4-(4-methylpiperazin-1-yl-2,2,3,3,5,5,6,6-d8)-2-((tetrahydro-2H-pyran-4-yl)amino)benzamide], for which the microsomal CLint at 1 μM in series [1] stood at 31.3 µL/min/mg; in series [4] it was 19.5 µL/min/mg. Also, the results for the half-life at 1 μM in series [1] and in series [4] were 0.738 h and 1.19 h, respectively. Further, the IC50 in series [5] lay in the range of 10 to 50 nM; with KM12 (TPM3-TRKA) cells, 1 to 10 nM; with Ba/F3 EML-ALK cells, 50 to 150 nM.

Consider `[2H]C1([2H])CC(Nc2cc(N3CCN(C)CC3)ccc2C(=O)Nc2n[nH]c3ccc(Cc4cc(F)cc(F)c4)cc23)CC([2H])([2H])O1` [Compound T-8, N-(5-(3,5-difluorobenzyl)-1H-indazol-3-yl)-4-(4-methylpiperazin-1-yl)-2-((tetrahydro-2H-pyran-4-yl-2,2,6,6-d4)amino)benzamide], for which, in series [1], the microsomal CLint at 1 μM worked out at 44.9 µL/min/mg and the half-life at 1 μM came to 0.515 h. In addition, the IC50 in series [2] (setting [6]) is more than 200 nM. The IC50 in the series with Ba/F3 EML-ALK cells (setting [6]) was 50 to 150 nM. In series [3], this molecule yielded a Cl_pred of 113 mL/min/kg, an F of 11.78%, an exposure AUC(0-t) of 1530 ng·h/mL and a peak concentration (Cmax) of 254 ng/mL. Further, in series [3], the mean residence time (MRT) was determined as 4.42 h and the Tmax was 3.33 h. For the same molecule, in series [4], the microsomal CLint at 1 μM came out at 33.6 µL/min/mg and the half-life at 1 μM was 0.688 h.

Consider `CN1CCN(c2ccc(C(=O)Nc3n[nH]c4ccc(Cc5cc(F)cc(F)c5)cc34)c(NC3CCOCC3)c2)CC1` [Entrectinib, N-(5-(3,5-difluorobenzyl)-1H-indazol-3-yl)-4-(4-methylpiperazin-1-yl)-2-((tetrahydro-2H-pyran-4-yl)amino)benzamide, reference compound], for which, in series [1], the microsomal CLint at 1 μM amounted to 48.1 µL/min/mg and the half-life at 1 μM worked out at 0.48 h. Besides, the IC50 in series [2] was more than 200 nM. The IC50 in series [5] fell in the range of 10 to 50 nM. Besides, in the series with KM12 (TPM3-TRKA) cells, the IC50 was 1 to 10 nM. Also, the IC50 in the series on Ba/F3 EML-ALK cells was in the range of 50 to 150 nM. In series [3], this molecule came in with a Cl_pred of 114 mL/min/kg, an F of 9.23%, an AUC(0-t) of 1460 ng·h/mL and a maximum concentration (Cmax) of 236 ng/mL. Moreover, in series [3], the MRT amounted to 4.24 h and the Tmax came to 2.17 h. Moreover, in series [4], the microsomal CLint at 1 μM turned out to be 32.9 µL/min/mg and the half-life at 1 μM came out at 0.703 h.

Regarding `[2H]C([2H])([2H])N1CCN(c2ccc(C(=O)Nc3n[nH]c4ccc(Cc5cc(F)cc(F)c5)cc34)c(NC3CCOCC3)c2)CC1` [Compound T-1, N-(5-(3,5-difluorobenzyl)-1H-indazol-3-yl)-4-(4-(methyl-d3)piperazin-1-yl)-2-((tetrahydro-2H-pyran-4-yl)amino)benzamide], in series [1], the microsomal CLint at 1 μM was 34.7 µL/min/mg and the half-life at 1 μM is 0.665 h. Further, the IC50 in series [5] fell in the range of 10 to 50 nM. Moreover, in the series on KM12 (TPM3-TRKA) cells, the IC50 is 1 to 10 nM. For the same molecule, the IC50 with Ba/F3 EML-ALK cells was in the range of 50 to 150 nM. In series [3], this molecule displayed a Cl_pred of 155 mL/min/kg, an F of 7.43%, an AUC(0-t) of 1070 ng·h/mL and a Cmax of 145 ng/mL. For the same molecule, in series [3], the MRT is 5.31 h and the Tmax is 3.33 h. In series [4], the microsomal CLint at 1 μM was found to be 21.3 µL/min/mg and the half-life at 1 μM turned out to be 1.09 h.
